Laboratory results from the NIST ThermoML archive (doi:10.1021/je900916e).
Numbers after ± are expanded uncertainties.

Test: cn = amount concentration of the nth substance listed, in mol/dm3
Settings: 101 kPa, Liquid, Advanced Conductivity Orion 162A

CC[N+](CC)(CC)CC.O=C([O-])C(F)(F)C(F)(F)C(F)(F)C(F)(F)C(F)(F)C(F)(F)C(F)(F)F [tetraethylammonium perfluorooctanoate] + O
Settings | electrical conductivity [S/m]
288.15 K, c1 = 0.000744 | 0.00332 ± 7e-05
288.15 K, c1 = 0.001478 | 0.00651 ± 0.00013
288.15 K, c1 = 0.0022 | 0.0094 ± 0.00019
288.15 K, c1 = 0.002913 | 0.0122 ± 0.00024
288.15 K, c1 = 0.003614 | 0.015 ± 0.0003
288.15 K, c1 = 0.004306 | 0.0176 ± 0.00035
288.15 K, c1 = 0.005101 | 0.0205 ± 0.00041
288.15 K, c1 = 0.005882 | 0.0233 ± 0.00047
288.15 K, c1 = 0.006651 | 0.0258 ± 0.00052
288.15 K, c1 = 0.007407 | 0.0275 ± 0.00055
288.15 K, c1 = 0.008152 | 0.0283 ± 0.00057
288.15 K, c1 = 0.009091 | 0.0292 ± 0.00058
288.15 K, c1 = 0.01011 | 0.0301 ± 0.0006
288.15 K, c1 = 0.01131 | 0.0311 ± 0.00062
288.15 K, c1 = 0.01266 | 0.0322 ± 0.00064
288.15 K, c1 = 0.01398 | 0.0332 ± 0.00066
288.15 K, c1 = 0.01543 | 0.0343 ± 0.00069
293.15 K, c1 = 0.000662 | 0.00339 ± 7e-05
293.15 K, c1 = 0.001316 | 0.00649 ± 0.00013
293.15 K, c1 = 0.001961 | 0.00944 ± 0.00019
293.15 K, c1 = 0.002597 | 0.0123 ± 0.00025
293.15 K, c1 = 0.003226 | 0.0149 ± 0.0003
293.15 K, c1 = 0.003846 | 0.0176 ± 0.00035
293.15 K, c1 = 0.004458 | 0.0201 ± 0.0004
293.15 K, c1 = 0.005063 | 0.0226 ± 0.00045
293.15 K, c1 = 0.00566 | 0.0249 ± 0.0005
293.15 K, c1 = 0.00625 | 0.027 ± 0.00054
293.15 K, c1 = 0.006832 | 0.029 ± 0.00058
293.15 K, c1 = 0.007407 | 0.0301 ± 0.0006
293.15 K, c1 = 0.007975 | 0.0309 ± 0.00062
293.15 K, c1 = 0.008536 | 0.0316 ± 0.00063
293.15 K, c1 = 0.00942 | 0.0325 ± 0.00065
293.15 K, c1 = 0.01029 | 0.0334 ± 0.00067
293.15 K, c1 = 0.01114 | 0.0342 ± 0.00068
293.15 K, c1 = 0.01218 | 0.0351 ± 0.0007
293.15 K, c1 = 0.01319 | 0.036 ± 0.00072
293.15 K, c1 = 0.01419 | 0.0369 ± 0.00074
293.15 K, c1 = 0.01516 | 0.0378 ± 0.00076
298.15 K, c1 = 0.000662 | 0.00389 ± 8e-05
298.15 K, c1 = 0.001316 | 0.00743 ± 0.00015
298.15 K, c1 = 0.001961 | 0.0108 ± 0.00022
298.15 K, c1 = 0.002597 | 0.0141 ± 0.00028
298.15 K, c1 = 0.003226 | 0.0172 ± 0.00034
298.15 K, c1 = 0.003846 | 0.0202 ± 0.0004
298.15 K, c1 = 0.004458 | 0.0231 ± 0.00046
298.15 K, c1 = 0.005063 | 0.0259 ± 0.00052
298.15 K, c1 = 0.00566 | 0.0286 ± 0.00057
298.15 K, c1 = 0.00625 | 0.0313 ± 0.00063
298.15 K, c1 = 0.006832 | 0.0329 ± 0.00066
298.15 K, c1 = 0.007407 | 0.0339 ± 0.00068
298.15 K, c1 = 0.007975 | 0.0348 ± 0.0007
298.15 K, c1 = 0.008536 | 0.0356 ± 0.00071
298.15 K, c1 = 0.00942 | 0.0366 ± 0.00073
298.15 K, c1 = 0.01029 | 0.0376 ± 0.00075
298.15 K, c1 = 0.01114 | 0.0386 ± 0.00077
298.15 K, c1 = 0.01218 | 0.0397 ± 0.00079
298.15 K, c1 = 0.01319 | 0.0409 ± 0.00082
298.15 K, c1 = 0.01419 | 0.042 ± 0.00084
298.15 K, c1 = 0.01516 | 0.0431 ± 0.00086
303.15 K, c1 = 0.000662 | 0.00431 ± 9e-05
303.15 K, c1 = 0.001316 | 0.00815 ± 0.00016
303.15 K, c1 = 0.001961 | 0.0119 ± 0.00024
303.15 K, c1 = 0.002597 | 0.0154 ± 0.00031
303.15 K, c1 = 0.003226 | 0.0189 ± 0.00038
303.15 K, c1 = 0.003846 | 0.0222 ± 0.00044
303.15 K, c1 = 0.004458 | 0.0254 ± 0.00051
303.15 K, c1 = 0.005063 | 0.0285 ± 0.00057
303.15 K, c1 = 0.00566 | 0.0314 ± 0.00063
303.15 K, c1 = 0.00625 | 0.0344 ± 0.00069
303.15 K, c1 = 0.006832 | 0.0365 ± 0.00073
303.15 K, c1 = 0.007407 | 0.038 ± 0.00076
303.15 K, c1 = 0.007975 | 0.0389 ± 0.00078
303.15 K, c1 = 0.008536 | 0.0398 ± 0.0008
303.15 K, c1 = 0.00942 | 0.0409 ± 0.00082
303.15 K, c1 = 0.01029 | 0.042 ± 0.00084
303.15 K, c1 = 0.01114 | 0.0431 ± 0.00086
303.15 K, c1 = 0.01218 | 0.0444 ± 0.00089
303.15 K, c1 = 0.01319 | 0.0457 ± 0.00091
303.15 K, c1 = 0.01419 | 0.047 ± 0.00094
303.15 K, c1 = 0.01516 | 0.0483 ± 0.00097
308.15 K, c1 = 0.000744 | 0.00544 ± 0.00011
308.15 K, c1 = 0.001478 | 0.0102 ± 0.0002
308.15 K, c1 = 0.0022 | 0.0148 ± 0.0003
308.15 K, c1 = 0.002913 | 0.0193 ± 0.00039
308.15 K, c1 = 0.003614 | 0.0234 ± 0.00047
308.15 K, c1 = 0.004306 | 0.0275 ± 0.00055
308.15 K, c1 = 0.004988 | 0.0316 ± 0.00063
308.15 K, c1 = 0.00566 | 0.0354 ± 0.00071
308.15 K, c1 = 0.006323 | 0.0391 ± 0.00078
308.15 K, c1 = 0.006977 | 0.0419 ± 0.00084
308.15 K, c1 = 0.007621 | 0.0433 ± 0.00087
308.15 K, c1 = 0.008467 | 0.0448 ± 0.0009
308.15 K, c1 = 0.009297 | 0.0462 ± 0.00092
308.15 K, c1 = 0.01011 | 0.0475 ± 0.00095
308.15 K, c1 = 0.01111 | 0.049 ± 0.00098
308.15 K, c1 = 0.01228 | 0.0508 ± 0.001
308.15 K, c1 = 0.01361 | 0.0527 ± 0.001
308.15 K, c1 = 0.01489 | 0.0545 ± 0.0011
308.15 K, c1 = 0.01632 | 0.0565 ± 0.0011
313.15 K, c1 = 0.000662 | 0.00523 ± 0.0001
313.15 K, c1 = 0.001316 | 0.0101 ± 0.0002
313.15 K, c1 = 0.001961 | 0.0146 ± 0.00029
313.15 K, c1 = 0.002597 | 0.0189 ± 0.00038
313.15 K, c1 = 0.003226 | 0.0231 ± 0.00046
313.15 K, c1 = 0.003846 | 0.0272 ± 0.00054
313.15 K, c1 = 0.004458 | 0.0312 ± 0.00062
313.15 K, c1 = 0.005063 | 0.0351 ± 0.0007
313.15 K, c1 = 0.00566 | 0.0388 ± 0.00078
313.15 K, c1 = 0.00625 | 0.0422 ± 0.00084
313.15 K, c1 = 0.006832 | 0.0455 ± 0.00091
313.15 K, c1 = 0.007407 | 0.047 ± 0.00094
313.15 K, c1 = 0.007975 | 0.0482 ± 0.00096
313.15 K, c1 = 0.008536 | 0.0493 ± 0.00099
313.15 K, c1 = 0.00942 | 0.0508 ± 0.001
313.15 K, c1 = 0.01029 | 0.0523 ± 0.001
313.15 K, c1 = 0.01114 | 0.0537 ± 0.0011
313.15 K, c1 = 0.01218 | 0.0554 ± 0.0011
313.15 K, c1 = 0.01319 | 0.0571 ± 0.0011
313.15 K, c1 = 0.01419 | 0.0587 ± 0.0012
313.15 K, c1 = 0.01516 | 0.0603 ± 0.0012
318.15 K, c1 = 0.000744 | 0.00628 ± 0.00013
318.15 K, c1 = 0.001478 | 0.0121 ± 0.00024
318.15 K, c1 = 0.0022 | 0.0177 ± 0.00035
318.15 K, c1 = 0.002913 | 0.023 ± 0.00046
318.15 K, c1 = 0.003614 | 0.028 ± 0.00056
318.15 K, c1 = 0.004306 | 0.033 ± 0.00066
318.15 K, c1 = 0.004988 | 0.0379 ± 0.00076
318.15 K, c1 = 0.00566 | 0.0424 ± 0.00085
318.15 K, c1 = 0.006323 | 0.0468 ± 0.00094
318.15 K, c1 = 0.006977 | 0.0504 ± 0.001
318.15 K, c1 = 0.007621 | 0.0534 ± 0.0011
318.15 K, c1 = 0.008257 | 0.0548 ± 0.0011
318.15 K, c1 = 0.009091 | 0.0566 ± 0.0011
318.15 K, c1 = 0.00991 | 0.0583 ± 0.0012
318.15 K, c1 = 0.01091 | 0.0602 ± 0.0012
318.15 K, c1 = 0.01209 | 0.0624 ± 0.0013
318.15 K, c1 = 0.01342 | 0.0646 ± 0.0013
318.15 K, c1 = 0.01471 | 0.0667 ± 0.0013
318.15 K, c1 = 0.01614 | 0.0692 ± 0.0014
